Results from ChEMBL document CHEMBL1146464, “Two new analogues of the cytotoxic substance BE-52211 from Streptomyces sp” (2004).

Assay: Inhibition of first mitotic cell division in Asterina pectinifera fertilized eggs assessed as minimum effective concentration
Assay type: functional
Details: Patiria pectinifera, Egg; read-out: MEC

| SMILES | minimal effective concentration [µg/mL] |
| --- | --- |
| C=CCc1cc(C)ccc1/C(C)=C\C(C)=C\CCC[C@H](O)CNC(C)=O | 2.5 |
| C/C=C\c1cc(C)ccc1/C(C)=C\C(C)=C\CCC[C@H](O)CNC(C)=O | 2.5 |
